The test system of assay [1] is ECFC/ADSC co-culture cell nuclei number.
The target of the next assay is T1, hJAK2 (Homo sapiens, UniProt O60674).
T1 construct: purchased Cerep (LANCE kinase assay platform, contract assay)
In words: Cerep LANCE kinase assay hJAK2 (S1 assay 33). The format is biochemical. Particulars: assay number 33. On the technique in general: TR-FRET usually uses a lanthanide donor and a delayed reading to cut background.

Another assay has as its system HeLa cells. The experiment in a line: cells. As to conditions: for Hela CellCycMod PI 2N IC50/EC50: assay number 14; for Hela CellCycMod PI 4N IC50/EC50: assay number 16; for Hela CellCycMod PI MI IC50/EC50: assay number 17; for Hela CellCycMod PI Cell Number IC50/EC50: assay number 18; for Hela CellCycMod PI S Phase IC50/EC50: assay number 15. Format: cell-based.
The subject of assay [2] is alkaline phosphatase (ALP) activity in C2C12 cells. The format is cell-based. Particulars: assay number 6; concentration response.
The target in the next assay is T2, hGSK3b (Homo sapiens, UniProt P49841).
T2 construct: purchased Cerep (LANCE kinase assay platform, contract assay)
T2 sequence (P49841 whole entry): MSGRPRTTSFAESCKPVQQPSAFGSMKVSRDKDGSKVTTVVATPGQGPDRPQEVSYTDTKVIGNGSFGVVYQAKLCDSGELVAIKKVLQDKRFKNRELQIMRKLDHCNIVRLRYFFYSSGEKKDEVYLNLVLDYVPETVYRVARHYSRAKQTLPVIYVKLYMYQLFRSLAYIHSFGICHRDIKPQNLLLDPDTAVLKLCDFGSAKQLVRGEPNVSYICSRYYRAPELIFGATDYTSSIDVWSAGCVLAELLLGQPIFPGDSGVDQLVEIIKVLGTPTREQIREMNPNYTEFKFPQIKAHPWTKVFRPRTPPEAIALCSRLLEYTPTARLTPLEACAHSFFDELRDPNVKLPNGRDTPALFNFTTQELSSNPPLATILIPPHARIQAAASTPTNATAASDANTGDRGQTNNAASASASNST
In words: Cerep LANCE kinase assay hGSK3b (S1 assay 34). Format: biochemical. As to conditions: assay number 34.

The target of another assay is T3, hp70S6K1 (RPS6KB1) (Homo sapiens, UniProt P23443).
T3 construct: purchased Cerep (LANCE kinase assay platform, contract assay)
T3 sequence (P23443 whole entry): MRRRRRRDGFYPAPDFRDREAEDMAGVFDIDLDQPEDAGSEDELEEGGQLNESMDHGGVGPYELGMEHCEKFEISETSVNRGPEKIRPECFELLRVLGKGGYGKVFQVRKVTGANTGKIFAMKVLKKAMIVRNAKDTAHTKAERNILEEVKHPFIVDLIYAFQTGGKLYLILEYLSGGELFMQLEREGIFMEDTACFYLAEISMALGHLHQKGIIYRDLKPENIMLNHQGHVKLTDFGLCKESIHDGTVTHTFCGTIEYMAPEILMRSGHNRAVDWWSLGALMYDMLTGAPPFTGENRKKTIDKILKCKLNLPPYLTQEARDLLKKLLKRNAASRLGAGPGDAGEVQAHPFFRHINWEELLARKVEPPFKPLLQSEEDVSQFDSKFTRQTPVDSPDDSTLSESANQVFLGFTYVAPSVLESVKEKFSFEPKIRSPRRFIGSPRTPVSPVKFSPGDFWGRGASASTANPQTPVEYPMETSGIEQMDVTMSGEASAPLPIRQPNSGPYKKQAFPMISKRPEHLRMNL
In words: Cerep LANCE kinase assay hp70S6K1 (S1 assay 31). As to conditions: assay number 31. The format is biochemical.

Another assay concerns the target T4, hFLT3 (Homo sapiens, UniProt P36888).
T4 construct: purchased Cerep (LANCE kinase assay platform, contract assay)
In words: Cerep LANCE kinase assay hFLT3 (S1 assay 35). As to conditions: assay number 35. The format is biochemical.

In assay [3] the test system is nuclear β-catenin in C2C12 cells. The experiment in a line: cells. Format: cell-based. Particulars: assay number 5; concentration response.
The test system of assay [4] is endothelial tube formation in co-cultures of ECFCs and ADSCs treated with VEGF. In words: cells. The format is cell-based, human.
The next assay concerns the target T5, hKDR (Homo sapiens, UniProt P35968).
T5 construct: purchased Cerep (LANCE kinase assay platform, contract assay)
The experiment in a line: Cerep LANCE kinase assay hKDR (S1 assay 32). Format: biochemical. Particulars: assay number 32.

T5 sequence (P35968 20-1356): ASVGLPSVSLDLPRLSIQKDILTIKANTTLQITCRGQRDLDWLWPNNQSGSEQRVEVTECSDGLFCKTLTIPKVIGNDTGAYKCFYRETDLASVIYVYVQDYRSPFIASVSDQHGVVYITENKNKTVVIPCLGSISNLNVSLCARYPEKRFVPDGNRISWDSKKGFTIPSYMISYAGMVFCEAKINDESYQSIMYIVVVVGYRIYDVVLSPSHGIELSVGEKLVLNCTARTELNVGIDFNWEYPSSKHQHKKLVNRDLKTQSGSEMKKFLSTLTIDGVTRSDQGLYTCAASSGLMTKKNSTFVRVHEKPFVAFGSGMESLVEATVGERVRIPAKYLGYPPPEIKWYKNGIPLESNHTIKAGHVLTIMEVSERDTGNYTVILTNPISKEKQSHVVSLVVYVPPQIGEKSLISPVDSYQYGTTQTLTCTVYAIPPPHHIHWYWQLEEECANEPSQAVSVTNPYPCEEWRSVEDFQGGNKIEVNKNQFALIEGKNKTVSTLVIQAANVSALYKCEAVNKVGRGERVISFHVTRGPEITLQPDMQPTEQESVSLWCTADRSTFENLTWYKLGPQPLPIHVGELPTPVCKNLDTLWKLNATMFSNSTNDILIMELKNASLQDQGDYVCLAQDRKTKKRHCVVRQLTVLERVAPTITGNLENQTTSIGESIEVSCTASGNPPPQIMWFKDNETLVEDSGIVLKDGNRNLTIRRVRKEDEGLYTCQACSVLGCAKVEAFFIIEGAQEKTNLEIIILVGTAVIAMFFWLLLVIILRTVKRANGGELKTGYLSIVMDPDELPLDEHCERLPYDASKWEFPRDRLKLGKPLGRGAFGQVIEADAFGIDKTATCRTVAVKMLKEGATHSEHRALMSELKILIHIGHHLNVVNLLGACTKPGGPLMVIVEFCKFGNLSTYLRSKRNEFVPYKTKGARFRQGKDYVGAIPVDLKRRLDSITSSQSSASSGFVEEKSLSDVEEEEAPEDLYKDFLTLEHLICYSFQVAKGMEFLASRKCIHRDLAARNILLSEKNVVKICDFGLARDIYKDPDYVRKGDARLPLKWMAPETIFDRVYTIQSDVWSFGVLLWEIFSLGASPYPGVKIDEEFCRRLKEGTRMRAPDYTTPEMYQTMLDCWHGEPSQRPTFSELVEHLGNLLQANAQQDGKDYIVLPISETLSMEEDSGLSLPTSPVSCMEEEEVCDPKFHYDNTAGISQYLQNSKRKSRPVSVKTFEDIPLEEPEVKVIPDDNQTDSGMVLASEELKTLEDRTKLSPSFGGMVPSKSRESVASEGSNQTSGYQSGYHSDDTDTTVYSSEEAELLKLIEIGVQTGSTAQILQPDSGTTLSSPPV
T4 sequence (P36888 27-993): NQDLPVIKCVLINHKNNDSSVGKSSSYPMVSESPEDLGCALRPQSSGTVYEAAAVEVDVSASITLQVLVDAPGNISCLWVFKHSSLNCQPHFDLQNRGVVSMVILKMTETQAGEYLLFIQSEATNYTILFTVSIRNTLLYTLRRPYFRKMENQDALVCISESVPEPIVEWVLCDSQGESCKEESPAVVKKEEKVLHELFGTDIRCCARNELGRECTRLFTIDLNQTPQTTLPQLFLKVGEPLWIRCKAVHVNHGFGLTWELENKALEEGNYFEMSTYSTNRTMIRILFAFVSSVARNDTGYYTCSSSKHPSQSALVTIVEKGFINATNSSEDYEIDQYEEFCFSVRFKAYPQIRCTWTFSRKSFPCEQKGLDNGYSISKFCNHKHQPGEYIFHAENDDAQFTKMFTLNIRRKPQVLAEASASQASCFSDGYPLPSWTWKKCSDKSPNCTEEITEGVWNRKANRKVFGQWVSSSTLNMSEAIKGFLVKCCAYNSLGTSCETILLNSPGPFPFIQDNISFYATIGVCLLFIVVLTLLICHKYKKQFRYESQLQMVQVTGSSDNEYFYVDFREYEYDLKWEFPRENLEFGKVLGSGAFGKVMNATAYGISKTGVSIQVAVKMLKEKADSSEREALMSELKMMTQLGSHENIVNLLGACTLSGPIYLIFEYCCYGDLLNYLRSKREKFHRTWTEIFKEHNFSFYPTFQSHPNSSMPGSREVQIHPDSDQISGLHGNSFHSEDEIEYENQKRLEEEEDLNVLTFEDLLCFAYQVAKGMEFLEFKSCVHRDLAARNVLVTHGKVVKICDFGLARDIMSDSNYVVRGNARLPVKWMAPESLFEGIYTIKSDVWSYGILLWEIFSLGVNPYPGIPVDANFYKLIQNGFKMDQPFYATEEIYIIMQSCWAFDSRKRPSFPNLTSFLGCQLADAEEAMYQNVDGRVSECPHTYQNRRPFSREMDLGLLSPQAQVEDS
T1 sequence (O60674 whole entry): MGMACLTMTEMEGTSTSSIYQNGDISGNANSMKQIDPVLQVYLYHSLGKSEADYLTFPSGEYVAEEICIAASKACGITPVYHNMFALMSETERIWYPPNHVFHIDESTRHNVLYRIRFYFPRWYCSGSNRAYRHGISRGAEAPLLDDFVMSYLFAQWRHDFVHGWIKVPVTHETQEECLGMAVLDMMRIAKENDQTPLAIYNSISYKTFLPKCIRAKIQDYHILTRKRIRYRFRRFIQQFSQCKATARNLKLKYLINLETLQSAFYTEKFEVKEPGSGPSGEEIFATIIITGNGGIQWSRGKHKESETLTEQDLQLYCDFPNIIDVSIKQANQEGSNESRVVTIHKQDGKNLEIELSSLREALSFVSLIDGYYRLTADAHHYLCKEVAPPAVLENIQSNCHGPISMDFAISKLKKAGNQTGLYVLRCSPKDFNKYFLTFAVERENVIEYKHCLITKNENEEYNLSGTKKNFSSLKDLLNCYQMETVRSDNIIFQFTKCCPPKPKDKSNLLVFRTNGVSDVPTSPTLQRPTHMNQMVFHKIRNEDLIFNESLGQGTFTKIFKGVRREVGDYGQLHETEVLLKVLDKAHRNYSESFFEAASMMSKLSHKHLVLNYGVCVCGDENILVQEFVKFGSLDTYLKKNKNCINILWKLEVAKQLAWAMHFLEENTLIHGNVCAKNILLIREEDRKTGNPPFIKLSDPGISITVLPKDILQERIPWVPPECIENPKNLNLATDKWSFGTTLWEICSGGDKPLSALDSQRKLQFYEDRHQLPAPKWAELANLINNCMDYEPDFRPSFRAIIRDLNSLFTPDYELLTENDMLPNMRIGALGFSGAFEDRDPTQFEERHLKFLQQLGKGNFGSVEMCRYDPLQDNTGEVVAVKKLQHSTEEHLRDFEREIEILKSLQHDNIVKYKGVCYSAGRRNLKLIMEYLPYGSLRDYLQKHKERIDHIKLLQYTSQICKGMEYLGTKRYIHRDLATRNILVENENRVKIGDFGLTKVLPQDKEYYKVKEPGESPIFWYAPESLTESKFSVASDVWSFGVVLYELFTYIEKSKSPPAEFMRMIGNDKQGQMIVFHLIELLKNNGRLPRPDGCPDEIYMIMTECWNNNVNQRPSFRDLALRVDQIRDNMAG

Consider `CCCCCCNC(=O)n1cc(F)c(=O)[nH]c1=O` [NCGC00095165-07], for which the “VEGF_ADSC\ECFC Angio Hoechst NucArea IC50/EC50” value in assay [1] is given as more than 10 µM. Further, the “hJAK2 LANCE IC50/EC50” value on hJAK2 is more than 20 µM. In the assay with HeLa cells, the “Hela CellCycMod PI 2N IC50/EC50” value was more than 10 µM, the “Hela CellCycMod PI 4N IC50/EC50” value is recorded as more than 10 µM, the “Hela CellCycMod PI MI IC50/EC50” value is more than 10 µM and the “Hela CellCycMod PI Cell Number IC50/EC50” value was more than 10 µM. For the same molecule, in assay [2], the “WntCondMedia_Alk Phos C2C12 IC50/EC50” value was found to be 5.5533 µM. In addition, on hGSK3b, the “hGSK3b LANCE IC50/EC50” value is reported as more than 20 µM. Also, the “hp70S6K1 LANCE IC50/EC50” value on hp70S6K1 (RPS6KB1) was more than 20 µM. The “hFLT3 LANCE IC50/EC50” value on hFLT3 is more than 20 µM. For the same molecule, the “WntCondMedia_bCatenin C2C12 IC50/EC50” value in assay [3] came out at 4.9829 µM. Moreover, in [4], the “VEGF_ADSC\ECFC Angio CD31 TubeArea IC50/EC50” value is reported as 4.486 µM. In addition, the “hKDR LANCE IC50/EC50” value at hKDR is on record as more than 20 µM.

In the case of `[O-][n+]1ccccc1SSc1cccc[n+]1[O-]` [NCGC00164493-02], the “VEGF_ADSC\ECFC Angio Hoechst NucArea IC50/EC50” value in assay [1] came to 1.7865 µM. For the same molecule, the “hJAK2 LANCE IC50/EC50” value on hJAK2 was more than 20 µM. Moreover, in the assay on HeLa cells, the “Hela CellCycMod PI 2N IC50/EC50” value is given as more than 10 µM, the “Hela CellCycMod PI S Phase IC50/EC50” value is more than 10 µM, the “Hela CellCycMod PI 4N IC50/EC50” value is more than 10 µM and the “Hela CellCycMod PI MI IC50/EC50” value is on record as 2.2317 µM. In addition, the “Hela CellCycMod PI Cell Number IC50/EC50” value with HeLa cells was 0.8425 µM. In assay [2], the “WntCondMedia_Alk Phos C2C12 IC50/EC50” value is 0.1306 µM. Besides, the “hGSK3b LANCE IC50/EC50” value on hGSK3b is more than 20 µM. Moreover, the “hp70S6K1 LANCE IC50/EC50” value at hp70S6K1 (RPS6KB1) is given as more than 20 µM. Further, the “hFLT3 LANCE IC50/EC50” value at hFLT3 is recorded as more than 20 µM. For the same molecule, the “WntCondMedia_bCatenin C2C12 IC50/EC50” value in assay [3] was 0.9914 µM. For the same molecule, in [4], the “VEGF_ADSC\ECFC Angio CD31 TubeArea IC50/EC50” value amounted to 0.719 µM. At hKDR, the “hKDR LANCE IC50/EC50” value was more than 20 µM.

Turning to `CC(C)(C)C(=O)OCOP(=O)(COCCn1cnc2c(N)ncnc21)OCOC(=O)C(C)(C)C` [NCGC00164624-02], in assay [1], the “VEGF_ADSC\ECFC Angio Hoechst NucArea IC50/EC50” value is given as more than 10 µM. At hJAK2, the “hJAK2 LANCE IC50/EC50” value is listed as more than 20 µM. In the assay on HeLa cells, the “Hela CellCycMod PI 2N IC50/EC50” value is more than 10 µM, the “Hela CellCycMod PI S Phase IC50/EC50” value turned out to be 0.0608 µM, the “Hela CellCycMod PI 4N IC50/EC50” value was more than 10 µM and the “Hela CellCycMod PI MI IC50/EC50” value was more than 10 µM. Further, in the assay on HeLa cells, the “Hela CellCycMod PI Cell Number IC50/EC50” value was found to be 0.134 µM. Besides, the “WntCondMedia_Alk Phos C2C12 IC50/EC50” value in assay [2] came out at 0.3874 µM. Also, on hGSK3b, the “hGSK3b LANCE IC50/EC50” value is more than 20 µM. Moreover, on hp70S6K1 (RPS6KB1), the “hp70S6K1 LANCE IC50/EC50” value is more than 20 µM. In addition, the “hFLT3 LANCE IC50/EC50” value at hFLT3 is more than 20 µM. Further, in assay [3], the “WntCondMedia_bCatenin C2C12 IC50/EC50” value came to 0.7043 µM. Besides, the “VEGF_ADSC\ECFC Angio CD31 TubeArea IC50/EC50” value in assay [4] came out at 0.3913 µM. For the same molecule, the “hKDR LANCE IC50/EC50” value on hKDR is recorded as more than 20 µM.

As for `CC[C@@]1(O)C(=O)OCc2c1cc1n(c2=O)Cc2c-1nc1ccccc1c2/C=N/OC(C)(C)C` [NCGC00253588-01], in assay [1], the “VEGF_ADSC\ECFC Angio Hoechst NucArea IC50/EC50” value came to 0.7994 µM. Also, the “hJAK2 LANCE IC50/EC50” value on hJAK2 is reported as more than 20 µM. Moreover, in the assay with HeLa cells, the “Hela CellCycMod PI 4N IC50/EC50” value is reported as more than 10 µM, the “Hela CellCycMod PI MI IC50/EC50” value is listed as more than 10 µM and the “Hela CellCycMod PI Cell Number IC50/EC50” value is given as 0.0022 µM. Besides, the “WntCondMedia_Alk Phos C2C12 IC50/EC50” value in assay [2] is listed as 0.0032 µM. The “hGSK3b LANCE IC50/EC50” value at hGSK3b is reported as more than 20 µM. The “hp70S6K1 LANCE IC50/EC50” value on hp70S6K1 (RPS6KB1) is recorded as more than 20 µM. For the same molecule, the “hFLT3 LANCE IC50/EC50” value on hFLT3 is given as more than 20 µM. Also, the “WntCondMedia_bCatenin C2C12 IC50/EC50” value in assay [3] was 1.1571 µM. The “VEGF_ADSC\ECFC Angio CD31 TubeArea IC50/EC50” value in assay [4] is reported as 0.002 µM. In addition, on hKDR, the “hKDR LANCE IC50/EC50” value is recorded as more than 20 µM.

Values taken from article PMC4503722, “Novel Phenotypic Outcomes Identified for a Public Collection of Approved Drugs from a Publicly Accessible Panel of Assays” (PLoS ONE, 2015).
